# US20230123588A1, “METHODS OF SLOWING BRAIN VOLUME LOSS” (ACTELION PHARMACEUTICALS LTD, priority 2020, published 2023)
# Legend:
# [1] = system: adult subjects with brain volume loss (relapsing multiple sclerosis); settings: human, in vivo
# From the text: Based on the individual case review, most ALT/AST increases ≥3×ULN occurred as a single transient asymptomatic episode, resolving with continued treatment or after protocol mandated treatment discontinuation. All but one case of bilirubin increase ≥2×ULN occurred in subjects with pre-treatment bilirubin increases. One case of potential Hy's law occurred in a subject with pre-existing transaminase elevation (ALT>5×ULN), and the event fully resolved within 2 weeks after treatment discontinuation.
# [2] = system: adult subjects with brain volume loss (relapsing multiple sclerosis); assay: Percent change in brain volume from baseline (MRI, SIENA) in randomized double-blind study of ponesimod vs teriflunomide; assay type: in vivo, human; settings: Week 60
# [3] = system: adult subjects with brain volume loss (relapsing multiple sclerosis); assay: as above; assay type: in vivo, human; settings: for LS Mean difference in percent change in brain volume (Ponesimod 20 mg − Teriflunomide 14 mg) / LS Mean percent change in brain volume from baseline: Week 108; for brain volume loss (BVL) up to EOS: teriflunomide 14 mg
# Protocol: Main analysis set for efficacy: The Full Analysis Set (FAS) included all randomized subjects. Subjects were evaluated according to the treatment they were randomized to.
# Efficacy variable/timepoint: The endpoint was brain volume loss up to the end of study (EOS). All available data up to EOS, regardless of treatment discontinuation was included (ITT approach).
# Using a mixed model with linear time effect (adjusted for stratification factors, presence/absence of GD+T1 lesions at baseline, and normalized brain volume at baseline), the LS mean percent change from baseline to Week 108 in brain volume was −0.91% in the ponesimod 20 mg group (n=436) and −1.25% in the teriflunomide 14 mg group (n=434). The LS mean difference (ponesimod 20 mg—teriflunomide 14 mg) was 0.34% (95% CLs: 0.17, 0.50; p<0.0001).
# Results of the analysis using a repeated measurements ANOVA model (MMRM) were consistent with that described above with respect to the mixed model with linear time effect.
# [4] = system: adult subjects with brain volume loss (relapsing multiple sclerosis); assay: Reasons for premature treatment discontinuation in the study; assay type: in vivo; settings: for subjects discontinued due to AEs or tolerability related reasons / subjects discontinued due to efficacy related reasons: ponesimod 20 mg, teriflunomide 14 mg
# Protocol: A total of 1468 subjects were screened. Of those, 1133 subjects were randomized (567 to ponesimod 20 mg and 566 to teriflunomide 14 mg) across 162 sites in 28 countries, and 1131 subjects received at least one dose of study drug. The disposition of subjects is summarized in Table 1 and a summary of reasons (primary reason) for treatment discontinuation are shown in Table 2. Overall treatment and study discontinuation were balanced across both treatment arms. A total of 6.5% and 2.5% of the subjects discontinued due to AEs or tolerability related reasons in ponesimod 20 mg and teriflunomide 14 mg, respectively, while 1.9% and 4.3% discontinued due to efficacy related reasons. There were 2 deaths reported during the study—both on teriflunomide 14 mg.
# [5] = system: adult subjects with brain volume loss (relapsing multiple sclerosis); assay: 12-lead ECG heart rate and first-dose monitoring on Day 1; assay type: in vivo, human; settings: for mean heart rate reduction compared to pre-dose: Day 1, 2-hours post dose, 12-lead ECG, ponesimod 20 mg arm, teriflunomide 14 mg; for subjects with asymptomatic post-dose HR≤40 bpm: Day 1, all had pre-treatment HR<55 bpm
# Protocol: The incidence of treatment-emergent heart rate and rhythm (including hypotension) AESIs on Day 1 was higher in the ponesimod 20 mg arm (2.1%) than in the teriflunomide 14 mg arm (0.4%). However, the overall incidence of first dose AESI on Day 1 was low (2.1%) in ponesimod. None of these events were serious nor led to permanent discontinuation of study treatment. Discharge criteria at 4 hours post-dose were met for ca. 99% of subjects. […] ECG HR effect: nadir at 2 hours post-dose (siponimod—3-4 hours, fingolimod—around by 6 hours). Low incidence of low HR outliers (post-dose HR≤40 bpm), all 3 of them with a pre-treatment HR of <55 bpm, which is a known risk factor for post-dose bradycardia with S1P receptor modulators.
# The mean heart rate reduction compared to pre-dose reached a maximum for ponesimod 20 mg at 2-hours post dose, −8.7 bpm compared to −1.7 bpm for teriflunomide 14 mg (FIG. 2).
# [6] = system: adult subjects with brain volume loss (relapsing multiple sclerosis); assay: Treatment-emergent adverse events, AESIs and deaths (Safety Set); assay type: in vivo, human; settings: Ponesimod 20 mg N = 565, Teriflunomide 14 mg N = 566
# Protocol: The most common AESIs were reported for category hepatobiliary disorders/liver enzyme abnormality (25.7% vs 14.5% in ponesimod 20 mg compared to teriflunomide 14 mg, respectively), followed by category hypertension (10.1% vs 9.0%), and pulmonary events (8.0% vs 2.7%).
# [7] = other S1P receptor modulators, given for comparison; cited from earlier work
# [8] = mixed model with linear time effect
# [9] = mixed model with linear time effect, Ponesimod 20 mg (436 subjects), Teriflunomide 14 mg (434 subjects)
# [10] = repeated measurements ANOVA model (MMRM)
# [11] = repeated measurements ANOVA model (MMRM), Ponesimod 20 mg (418 subjects), Teriflunomide 14 mg (414 subjects)
# [12] = ponesimod 20 mg, up to end of study
# [13] = Safety Set, Ponesimod 20 mg N = 565, Teriflunomide 14 mg N = 566
SMILES,proportion of subjects who experienced ALT increase >8×ULN [1] [%],proportion of subjects who experienced ALT increase ≥3×ULN [1] [%],"LS Mean percent change in brain volume from baseline [2, 9] [%]","LS Mean percent change in brain volume from baseline [2, 11] [%]","LS Mean percent change in brain volume from baseline [3, 9] [%]","LS Mean percent change in brain volume from baseline [3, 11] [%]","brain volume loss (BVL) up to EOS [3, 12] [%]","Premature discontinuation: Death (number) [4, 13] [n]","Premature discontinuation: Physician decision, Adverse event (number) [4, 13] [n]","Premature discontinuation: Physician decision, Adverse event (percent) [4, 13]","Premature discontinuation: Physician decision, Lack of efficacy/treatment failure (number) [4, 13] [n]","Premature discontinuation: Physician decision, Lack of efficacy/treatment failure (percent) [4, 13]","Premature discontinuation: Pre-specified study treatment discontinuation criteria (number) [4, 13] [n]","Premature discontinuation: Pre-specified study treatment discontinuation criteria (percent) [4, 13]","Premature discontinuation: Subject decision, Efficacy related (number) [4, 13] [n]","Premature discontinuation: Subject decision, Efficacy related (percent) [4, 13]","Premature discontinuation: Subject decision, Tolerability related (number) [4, 13] [n]","Premature discontinuation: Subject decision, Tolerability related (percent) [4, 13]",subjects discontinued due to AEs or tolerability related reasons [4] [%],subjects discontinued due to efficacy related reasons [4] [%],other results
"CCC/N=C1\S/C(=C\c2ccc(OC[C@H](O)CO)c(Cl)c2)C(=O)N1c1ccccc1C [Ponesimod, (R)-5-[3-chloro-4-(2,3-dihydroxy-propoxy)-benz[Z]ylidene]-2-([Z]-propylimino)-3-o-tolyl-thiazolidin-4-one]",0.7,17.3,−0.45,−0.43,−0.91,−0.92,−0.91,0,29,(5.1) %,4,(0.7) %,12,(2.1) %,7,(1.2) %,8,(1.4) %,6.5,1.9,"LS Mean difference in percent change in brain volume (Ponesimod 20 mg − Teriflunomide 14 mg) [2, 8]: 0.08%; LS Mean difference in percent change in brain volume (Ponesimod 20 mg − Teriflunomide 14 mg) [2, 10]: 0.13%; LS Mean difference in percent change in brain volume (Ponesimod 20 mg − Teriflunomide 14 mg) [3, 8]: 0.34%; LS Mean difference in percent change in brain volume (Ponesimod 20 mg − Teriflunomide 14 mg) [3, 10]: 0.34%; reduction of brain volume loss up to EOS compared to teriflunomide 14 mg ([3]; ponesimod 20 mg): about 27%; efficacy in slowing brain volume loss over teriflunomide (conclusion) ([3]; ponesimod 20 mg vs teriflunomide 14 mg): superior efficacy; difference in BVL up to EOS, ponesimod 20 mg vs teriflunomide 14 mg ([3]; up to end of study, p<0.0001): 0.34%; mean heart rate reduction compared to pre-dose [5]: −8.7 bpm; 2nd or higher degree AV block ([5]; Day 1, first dose): No 2nd or higher degree AV block was observed; subjects meeting discharge criteria at 4 hours post-dose ([5]; Day 1, first dose): ca. 99%; time of ECG HR nadir (maximum mean heart rate reduction) post-dose ([5]; Day 1, first dose): 2 h; subjects with asymptomatic post-dose HR≤40 bpm [5]: 3 subjects; Subject with at least one Fatal AE [6]: 0 n (%)"
C/C(O)=C(\C#N)C(=O)Nc1ccc(C(F)(F)F)cc1 [Teriflunomide],2.1,8.3,−0.53,−0.55,−1.25,−1.26,−1.25,2,9,(1.6) %,10,(1.8) %,16,(2.8) %,14,(2.5) %,5,(0.9) %,2.5,4.3,"Premature discontinuation: Death (percent) [4, 13]: (0.4) %; mean heart rate reduction compared to pre-dose [5]: −1.7 bpm; subjects with asymptomatic post-dose HR≤40 bpm [5]: none; Subject with at least one Fatal AE [6]: 2 (0.4) n (%)"
CCCCCCCCc1ccc(CCC(N)(CO)CO)cc1 [fingolimod],,,,,,,,,,,,,,,,,,,,,time of ECG HR nadir post-dose [7]: ~6 h
CCc1cc(/C(C)=N/OCc2ccc(C3CCCCC3)c(C(F)(F)F)c2)ccc1CN1CC(C(=O)O)C1 [siponimod],,,,,,,,,,,,,,,,,,,,,time of ECG HR nadir post-dose [7]: 3 to 4 h
